Reference: patent US20220079913A1, “DIHYDROMYRICETIN WITH ANTI-ALCOHOLIC EFFECT” (Shanghai Spark Pharmaceutical Co., Ltd., priority 2020, published 2022)

Tests used:
[1] = Acute toxicity of dihydromyricetin, single oral gavage; format: in vivo, mice; details: ICR, mouse, in vivo, po
Procedure: (§1) Observation of the Acute Toxicity of Dihydromyricetin on ICR Mice
(§2) Preparation of test substance: weighing the test substance of the required quality; adding sterile water for injection to prepare it to the required concentration; mixing well before administration.
(§3) Animal breeds and strains: ICR mice
(§4) After the adaptation period, 30 experimental animals were divided into 3 groups, half male and […]. After fasting for 12 hours, according to the body weight, the control reagents or the test substance were administered orally respectively. The animal's clinical symptoms after administration are observed, with abnormal records. The animals were weighed before the administration and on the 1, 3, 5, and 7 days after the administration. At the end of the experiment, the animals were euthanized by inhalation of excessive CO2

ICR mice [2] = assay: as above; format: in vivo
Procedure: as §1, §2, §3, §4

ICR mice [3] = assay: Anti-alcoholic (hangover) test; format: in vivo; details: for Number of deaths / Number of drunks: 20 animals; for Number of deaths / Number of drunks / Drunkenness rate / Mortality rate: after 10 hours of drinking
Procedure: as §2, §3
60 experimental animals were divided into 3 groups, half male and […]. After fasting for 12 hours, according to the body weight, the control reagents the test substance were administered orally respectively.

[4] = cited from earlier work

## O=C1c2c(O)cc(O)cc2OC(c2cc(O)c(O)c(O)c2)C1O [Dihydromyricetin, (2R,3R)-3,5,7-trihydroxy-2-(3,4,5-trihydroxyphenyl) benzodihydropyran-4-one]
[1]
  MTD at 7 days: 5000 mg/kg
ICR mice [2]; 3500 mg/kg i.g. once, day 0
  Mortality rate: 0%
ICR mice [2]; 3500 mg/kg i.g. once, day 1
  Mortality rate: 0%
ICR mice [2]; 3500 mg/kg i.g. once, day 2
  Mortality rate: 0%
ICR mice [2]; 3500 mg/kg i.g. once, day 3
  Mortality rate: 0%
ICR mice [2]; 3500 mg/kg i.g. once, day 4
  Mortality rate: 0%
ICR mice [2]; 3500 mg/kg i.g. once, day 5
  Mortality rate: 0%
ICR mice [2]; 3500 mg/kg i.g. once, day 6
  Mortality rate: 0%
ICR mice [2]; 3500 mg/kg i.g. once, day 7
  Mortality rate: 0%
ICR mice [2]; 5000 mg/kg i.g. once, day 0
  Mortality rate: 0%
ICR mice [2]; 5000 mg/kg i.g. once, day 1
  Mortality rate: 0%
ICR mice [2]; 5000 mg/kg i.g. once, day 2
  Mortality rate: 0%
ICR mice [2]; 5000 mg/kg i.g. once, day 3
  Mortality rate: 0%
ICR mice [2]; 5000 mg/kg i.g. once, day 4
  Mortality rate: 0%
ICR mice [2]; 5000 mg/kg i.g. once, day 5
  Mortality rate: 0%
ICR mice [2]; 5000 mg/kg i.g. once, day 6
  Mortality rate: 0%
ICR mice [2]; 5000 mg/kg i.g. once, day 7
  Mortality rate: 0%
ICR mice [2]; 3500 and 5000 mg/kg, single oral administration
  mortality rate during the test period: 0
ICR mice [3]; 350 mg/kg i.g. once
  Sobering time: 376.35 min
  Tolerance time: 77.40 min
  Number of deaths: 0
  Number of drunks: 19
  Drunkenness rate: 95%
  Mortality rate: 0%
ICR mice [3]; 1050 mg/kg i.g. once
  Sobering time: 214.32 min
  Tolerance time: 193.00 min
  Number of deaths: 1
  Number of drunks: 14
  Drunkenness rate: 70%
  Mortality rate: 5%
ICR mice [3]; 1050 mg/kg i.g. once, listed as dihydromyricetin
  Sobering time: 214 min
ICR mice [3]; 1050 mg/kg, control group 324 min, statistically different
  sobering time compared with the control group: significantly lower
[4]; chloroform and petroleum ether
  solubility in chloroform and petroleum ether: hardly soluble
[4]; ethyl acetate
  solubility in ethyl acetate: very slightly soluble
[4]; methanol, ethanol and acetone
  solubility in methanol, ethanol and acetone: easily soluble
[4]; room temperature and cold water
  solubility in water: Low solubility
